Data published in patent US7629318B2, “Immunosuppressant compounds, methods and uses related thereto” (priority 2002, dated 2009).
Numbered stars: 1 amine (or outer) side, 2 acyl side, 3 side chain; on linkers, the order of the positions; unused ones are H or OH. Square brackets hold non-standard residues; d marks the D form. Peptide text beside a SMILES is read from it. Gly(1-amidinopiperidin-4-yl) = N=C(N)N1CCC([C@H](N)C(=O)O)CC1; X1 = CC(C)c1oc([C@H](CO)N[*:1])nc1C(=O)[*:2]; Pro(3R-Ph) = O=C(O)[C@H]1NCC[C@@H]1c1ccccc1; Tic = O=C(O)[C@@H]1Cc2ccccc2CN1; Cha = N[C@@H](CC1CCCCC1)C(=O)O; Nle = CCCC[C@H](N)C(=O)O

Columns and labels:
[1] = tested on: T cell activation from 0401(DR4) chimeric MHCII-mice; assay: In vivo inhibition of T cell activation by co-immunisation, DR4 mice immunised with HEL; set-up: species or system mouse; % Reduction of response to PPD(HEL): concentration or dose not given beside the values
From the text: Mouse strains DR4 and DR14 carry chimeric MHC-II transgenes that encode the N-terminal domains of the respective DR molecules (forming the peptide binding site) and the remaining (2nd extracellular domains, transmembrane and intracytoplasmic domains) of the murine class II molecule I Ed. These strains are deficient of other murine class II, and thus, all helper T cell responses are triggered by peptides presented in the respective human MHC-II binding site. As an initial in vivo test of subject inhibitors designed to bind to DR, DR-transgenic mice were co-immunized with a pre-defined dose of protein antigen and different amounts of the compound antagonist to be tested. In this set-up, both antigen and compound were emulsified together in complete Freund's adjuvant (CFA), and thus, a direct competition between the two components for presentation by DR was tested. Readout of the assay is ex vivo antigen-specific activation of T cells from regional lymph nodes explanted 9 days after co-immunization. In a typical experiment, antigen dose-response was investigated, and the curves from mice immunized with antigen were compared to those from mice co-immunized with antigen+compound. The dose response curves were generated using lymph node cells pooled at equal numbers from 2-3 mice per experimental group. The experimental system also permits assessment of inherent antigenicity of the compound antagonist. This was done by setting up a dose-response study from the same cell pool using different concentrations of the compund under investigation instead of the antigen. As a specificity control, the response to Purified Protein Derivative (PPD), the major protein component of CFA, was tested in the same cell pool.
All Gpg conataining compounds have significant immunosupressive properties in one or both of the in-vivo models. Gpg-containing compounds also show improved activity or improved specificity over the Arg-containing equivilent. Further, compounds according to Formula I show activity in this assay.
Compounds of the invention were injected as an Emulsion prepared using CFA (Bacto Adjuvant Complete H37 Ra, Difco, Order-No. 3113-60); proteins 10 mg/ml in PBS, inhibitors 5 μM in 10% DMSO. CFA, PBS, antigen, and inhibitor were placed in the barrel of a 5-ml syringe (total volume not more than 1 mL). The mixture was sonicated at an amplitude less than 40% (30-35%) for two separated 15 s periods. The emulsion should seem to be hard and not liquid at this point. A drop of emulsion placed on the surface of water should not melt. The resulting emulsion was pushed through the needle into a 1 ml syringe with a needle (Gr.18, 26G×1″), and air bubbles were removed. Mice were co-immunized with 50 μg protein and 210 nM compound antagonist in final 100 μl emulsion into the tail base. Antigen+Compound and CFA are mixed 1:1 vol/vol. The best results are obtained using DR 4 mice immunised with HEL and DR 14 mice immunized with OVA.
Mice were injected at the tail-base as follows: Holding the tail of a mouse with thumb and middle finger, the index finger was placed under the base of the mouse's tail. The needle of the syringe was inserted about 1.5 cm from the tail base (hairy end) under the skin and pushed about 1 cm into the tail. 100 μl emulsion was injected into the mouse. After 9 days, mice were killed and lymph nodes removed.
The inhibitory effect of the candidate compounds on T-cell activation was tested using T-cells and antigen-presenting cells isolated from the lymph nodes of chimeric DR4-IE transgenic mice (Taconic, USA) previously co-immunized with hen egg lysozyme plus compound, or DR14-IE transgenic mice co-immunized with ovalbumin plus compound according to standard procedures (Adorini et al., 1988, Mueller et al., 1990; Current Protocols in Immunology, Vol. 2, 7.21; Ito et al., 1996). […]

[2] = tested on: T cell activation from 0404(DR14) chimeric MHCII-mice; assay: In vivo inhibition of T cell activation by co-immunisation, DR14 mice immunised with OVA; set-up: species or system mouse; % Reduction of response to PPD(OVA): concentration or dose not given beside the values
Outline: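 DR4 or DR14 chimeric MHC-II transgenic mice were co-immunised at the tail base with 50 μg HEL (DR4) or OVA (DR14) plus 210 nM compound, emulsified in CFA. After 9 days, pooled lymph node cells from 2–3 mice per group were tested for T-cell proliferation across an antigen dose range, compared with antigen-only immunisation; PPD served as a specificity control.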

[3] = tested on: HLA-DR1 transgenic mice, collagen induced arthritis; assay: Collagen induced arthritis (CIA) mouse model for rheumatoid arthritis; assay type: in vivo; conditions: compared to solvent as control; s.c.
Procedure: CIA is induced by immunization with type II collagen in HLA-DR1 transgenic mice as described by Rosloniec et al (J. Exp. Med. 1997; 185: 113). After disease onset, mice are treated with compounds at the maximal tolerated dose s.c. for two weeks, and the disease development compared to that in mice treated with solvent only as follows:
Disease Severity Score • 1. Erythema and mild swelling confined to the tarsals or ankle joint • 2. Erythema and mild swelling extending from the ankle to the tarsals • 3. Erythema and moderate swelling extending from the ankle to the metatarsal joints • 4. Erythema and severe swelling encompass the ankle, foot, and digits

[4] = tested on: DR4 transgenic mice, EAE induced by MOG; assay: Experimental autoimmune encephalomyelitis (EAE) mouse model for multiple sclerosis; assay type: in vivo; conditions: compared to solvent as control; s.c.
Procedure: EAE is induced in DR4 transgenic mice by injection of myelin oligodendrocyte glycoprotein (MOG) as described by Ito et al. (1996). After disease onset, mice are treated with compounds and studied as below:
Disease Score • 1. Tail atony • 2. Hind limb weakness • 3. Hind limb paralysis • 4. Hind limb paralysis and fore limb weakness or paralysis • 5. Moribund

## CCCC[C@H](NC(=O)[C@@H]1Cc2ccccc2CN1C(=O)[C@@H](NC(=O)[C@H](CC1CCCCC1)NC(C)=O)C1CCN(C(=N)N)CC1)C(=O)N1CC[C@H](c2ccccc2)[C@H]1C(=O)N[C@@H](CO)c1nc(C(=O)N(C)C)c(C(C)C)o1 [Compound P53, Ac-Cha-Gpg-Tic-Nle-βPhPro-[S(oxaz)L]-NMe2] (Ac-[Cha][Gly(1-amidinopiperidin-4-yl)][Tic][Nle][Pro(3R-Ph)][X1]-NMe2)
[1]; DR4 mice co-immunised with HEL plus compound, mean % inhibition from the control over 3 concentrations of antigen (6.7, 20 and 60 ug)
  % Reduction of response to HEL: 68.4%
[1]; specificity control: response to PPD in the same cell pool, HEL co-immunised mice
  % Reduction of response to PPD(HEL): 10.2%
[2]; DR14 mice co-immunised with OVA plus compound, mean % inhibition from the control over 3 concentrations of antigen (6.7, 20 and 60 ug)
  % Reduction of response to OVA: 56.3%
[2]; specificity control: response to PPD in the same cell pool, OVA co-immunised mice
  % Reduction of response to PPD(OVA): 26.8%
[3]
  efficacy in the CIA mouse model for rheumatoid arthritis: Efficacy
[4]
  efficacy in the EAE mouse model for multiple sclerosis prevention: Efficacy
